Activity calls are given as the source filed them.
Legend:
[1] = target: Voltage-gated inwardly rectifying potassium channel KCNH2 (Homo sapiens, UniProt Q12809); settings: Potency;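 note: confirmatory quantitative high-throughput screen measuring inhibition of hERG channel activity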
Cytochrome P450 3A4 = Cytochrome P450 3A4 (Homo sapiens, UniProt P08684);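 note: CYP3A4 tested as one member of a cytochrome P450 panel screen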
Cytochrome P450 2C9 [2] = target: T1, Cytochrome P450 2C9 (Homo sapiens, UniProt P11712)
A-375 [3] = experiment: MITF: Counter assay: A375 proliferation Measured in Cell-Based System Using Plate Reader - 2084-03_Inhibitor_Dose_DryPowder_Activity. [Related pubchem assays (depositor defined):AID488944]; format: functional; settings: Homo sapiens
[4] = Luminescence Cell-Based Dose Retest to Confirm Inhibitors of Cancer Stem Cells. [Related pubchem assays (depositor defined):AID2717, AID2721]; format: functional; settings: Homo sapiens
cells = format: functional
A-375 [5] = experiment: A375 melanoma cell viability reduction, dose response, counter-screen for MITF modulator project, cherry-pick samples, set 2 (AID 540335); format: functional, cell-based; settings: Homo sapiens
[6] = target: T2, Microphthalmia-associated transcription factor (Homo sapiens, UniProt O75030); experiment: TRPM1 promoter luciferase signal decrease, dose response, MITF inhibitor project, cell-based, SK-MEL-5, cherry-picked, set 3 (AID 493073); format: functional
T2 sequence (O75030 whole entry): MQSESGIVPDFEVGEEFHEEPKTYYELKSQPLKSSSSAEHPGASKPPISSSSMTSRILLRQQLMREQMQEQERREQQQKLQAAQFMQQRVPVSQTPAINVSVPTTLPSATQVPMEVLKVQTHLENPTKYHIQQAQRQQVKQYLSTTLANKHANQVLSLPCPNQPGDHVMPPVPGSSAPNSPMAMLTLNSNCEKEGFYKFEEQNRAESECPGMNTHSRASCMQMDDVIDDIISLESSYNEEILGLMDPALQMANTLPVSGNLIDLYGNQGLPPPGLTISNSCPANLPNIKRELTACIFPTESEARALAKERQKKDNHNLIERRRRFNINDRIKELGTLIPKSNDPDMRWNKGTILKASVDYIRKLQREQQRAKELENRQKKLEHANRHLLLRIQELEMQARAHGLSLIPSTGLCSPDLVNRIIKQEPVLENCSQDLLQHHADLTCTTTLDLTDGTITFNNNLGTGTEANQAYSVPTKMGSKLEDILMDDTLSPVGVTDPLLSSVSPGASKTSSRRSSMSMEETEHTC

HEK293 [7] = experiment: cells; settings: Homo sapiens
HEK293 [8] = experiment: cells; settings: Homo sapiens; remark: listed apart in the source
[9] = THP-1 cell cytotoxicity, dose response, cytotoxicity control for non-replicating M. tuberculosis project (AID 489025); format: functional
[10] = inhibitors of HIV Env-driven cell fusion, dose response, cherry-pick (AID 652057); format: functional, cell-based
[11] = ZM109 Env clade C HIV-1 fusion inhibitors, dose response, HeLa effector, CEM target cells, luciferase, cherry-pick (AID 652058); format: functional, cell-based
[12] = off-target signal loss in HeLa-CEM21 co-culture – HeLa F-luc CTL cells, cherry-picked, counter-screen for HIV-1 Env fusion inhibitor project, dose response (AID 652040); format: functional, cell-based;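 note: potency for signal decrease marking cytotoxic or nonspecific inhibition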
[13] = inhibitors of clade B AD8 Env fusion, dose response, cell-based, cherry-pick (AID 652062); format: functional;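 note: luciferase signal from cell-cell fusion driven by HIV-1 clade B AD8 Env; potency is for inhibitors of fusion seen as a drop in luminescence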
Mu-type opioid receptor = Mu-type opioid receptor (Homo sapiens, UniProt P35372); experiment: (§1) Counterscreen for agonists of heterodimerization of the mu 1 (OPRM1) and delta 1 (OPRD1) opioid receptors: Luminescence-based cell-based high throughput dose response assay to identify agonists of OPRM1 homodimerization.; format: functional
[14] = target: 5-hydroxytryptamine receptor 5A (Homo sapiens, UniProt P47898); experiment: Counterscreen for agonists of OPRM1-OPRD1 heterodimerization: luminescence-based cell-based high throughput dose response assay to identify agonists of 5-hydroxytryptamine (serotonin) 5A receptor (HTR5A). [Related pubchem assays (depositor defined):AID504326, AID504355, AID504692, AID504904, AID504905]; format: functional
[15] = target: Delta-type opioid receptor (Homo sapiens, UniProt P41143); experiment: as §1, with “of OPRD1” for “of OPRM1”, “homodimerization. [Related pubchem assays (depositor defined):AID504326, AID504355, AID504692, AID504904, AID504905]” for “homodimerization.”; format: functional
[16] = target: T3, Short transient receptor potential channel 4 (Mus musculus, UniProt Q9QUQ5); experiment: mouse TRPC4 channel activators, dose response, cell-based, HEK293 TRPC4/mu-opioid, Fluo-4 calcium (AID 434937); format: functional
T3 sequence (Q9QUQ5 whole entry): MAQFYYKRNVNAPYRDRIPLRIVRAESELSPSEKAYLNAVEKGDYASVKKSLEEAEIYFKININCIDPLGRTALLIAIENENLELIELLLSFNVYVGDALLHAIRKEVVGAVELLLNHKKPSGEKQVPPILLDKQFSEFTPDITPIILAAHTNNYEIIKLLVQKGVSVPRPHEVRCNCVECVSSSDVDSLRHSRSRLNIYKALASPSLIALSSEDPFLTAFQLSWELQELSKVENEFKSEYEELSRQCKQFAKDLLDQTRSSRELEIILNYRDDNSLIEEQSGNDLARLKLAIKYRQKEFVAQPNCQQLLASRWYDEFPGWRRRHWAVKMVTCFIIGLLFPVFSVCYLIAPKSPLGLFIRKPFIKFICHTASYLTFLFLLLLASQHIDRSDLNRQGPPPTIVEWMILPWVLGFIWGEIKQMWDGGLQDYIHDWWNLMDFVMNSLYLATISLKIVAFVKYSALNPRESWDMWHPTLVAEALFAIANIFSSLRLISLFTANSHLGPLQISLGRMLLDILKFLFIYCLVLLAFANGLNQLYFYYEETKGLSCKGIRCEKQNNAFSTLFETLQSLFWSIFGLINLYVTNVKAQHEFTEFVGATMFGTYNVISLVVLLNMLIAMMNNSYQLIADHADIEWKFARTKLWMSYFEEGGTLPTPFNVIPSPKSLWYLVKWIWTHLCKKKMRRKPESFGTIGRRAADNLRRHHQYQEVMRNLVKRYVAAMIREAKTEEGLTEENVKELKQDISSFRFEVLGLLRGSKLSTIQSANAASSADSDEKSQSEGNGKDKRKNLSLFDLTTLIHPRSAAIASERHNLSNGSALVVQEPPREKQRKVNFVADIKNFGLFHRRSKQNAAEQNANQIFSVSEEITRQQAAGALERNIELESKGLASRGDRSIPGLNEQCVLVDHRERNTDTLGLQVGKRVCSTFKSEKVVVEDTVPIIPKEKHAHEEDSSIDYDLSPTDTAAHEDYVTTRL

Escherichia coli = experiment: microbe, parasite or virus in culture
Cytochrome P450 2C9 [17] = target: T1, Cytochrome P450 2C9; remark: listed apart in the source
CAAX prenyl protease 2 [18] = target: CAAX prenyl protease 2 (Homo sapiens, UniProt Q9Y256); experiment: human Rce1 protease inhibitors, dose response, biochemical, yeast membranes, quenched-peptide fluorescence, cherry-pick (AID 588849)
Trypsin = Trypsin (Sus scrofa, UniProt P00761); experiment: porcine trypsin inhibitors, dose response, selectivity assay for Rce1 protease inhibitor project, biochemical, quenched peptide fluorescence, cherry-pick (AID 488789)
[19] = target: T4, Ubiquitin-conjugating enzyme E2 N (Homo sapiens, UniProt P61088); format: functional
T4 sequence (P61088 whole entry): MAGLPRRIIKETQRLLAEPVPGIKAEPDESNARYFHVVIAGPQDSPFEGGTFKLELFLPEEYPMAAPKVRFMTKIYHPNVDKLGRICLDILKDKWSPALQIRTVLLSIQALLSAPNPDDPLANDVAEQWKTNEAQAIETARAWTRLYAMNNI

[20] = target: T4, Ubiquitin-conjugating enzyme E2 N; format: functional; remark: listed apart in the source
Bcl-2-related protein A1 = target: T5, Bcl-2-related protein A1 (Mus musculus, UniProt Q07440); format: functional;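 note: confirmatory dose–response counterscreen on Bfl-1, used to check hits from a UBC13 polyubiquitin inhibitor campaign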
T5 sequence (Q07440 whole entry): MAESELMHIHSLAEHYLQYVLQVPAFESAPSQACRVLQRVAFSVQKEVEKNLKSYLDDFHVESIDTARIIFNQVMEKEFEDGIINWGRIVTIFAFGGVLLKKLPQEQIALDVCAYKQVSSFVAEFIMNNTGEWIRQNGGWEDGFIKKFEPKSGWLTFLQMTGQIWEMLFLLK

[21] = target: COUP transcription factor 2 (Homo sapiens, UniProt P24468); experiment: Luminescence-based cell-based high throughput dose response assay to identify inhibitors of COUP-TFII (NR2F2).; format: functional;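 note: HEK293 cells transiently cotransfected with COUP-TFII expression vector and reporter; luciferase reporter luminescence driven by COUP-TFII from the pX2-168 reporter plasmid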
HEK293 [22] = experiment: NOD2 signaling inhibitors in MDP-stimulated cells, cell-based, uHTS, luminescence (AID 2001); format: functional; settings: Homo sapiens
HEK293 [23] = experiment: cells; format: functional, cell-based; settings: Homo sapiens
HEK293 [24] = experiment: cells; format: functional, cell-based; settings: Homo sapiens; remark: listed apart in the source
HEK293 [25] = experiment: NOD1 signaling inhibitors, primary screen, cell-based, luminescence, uHTS (AID 1578); format: functional; settings: Homo sapiens
[26] = target: T6, Intestinal-type alkaline phosphatase (Homo sapiens, UniProt P09923); experiment: human intestinal alkaline phosphatase activators, dose response, biochemical, luminescence, uHTS hits (AID 463120); format: functional
[27] = target: T6, Intestinal-type alkaline phosphatase; experiment: human IAP activators, dose response, biochemical, luminescent, uHTS hits, set 2 (AID 488817); format: functional;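 note: potency of activators that raise enzyme activity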
[28] = target: Intestinal-type alkaline phosphatase (Mus musculus, UniProt P24822); experiment: PubChem AID 488875; format: functional
[29] = target: T7, Alkaline phosphatase, tissue-nonspecific isozyme (Homo sapiens, UniProt P05186); experiment: TNAP enzyme activators, dose response, selectivity assay for human IAP activator project, biochemical, TNAP isozyme, human IAP uHTS hits (AID 488886); format: functional;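 note: potency of compounds raising TNAP activity as a selectivity check on IAP activators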
T7 sequence (P05186 whole entry): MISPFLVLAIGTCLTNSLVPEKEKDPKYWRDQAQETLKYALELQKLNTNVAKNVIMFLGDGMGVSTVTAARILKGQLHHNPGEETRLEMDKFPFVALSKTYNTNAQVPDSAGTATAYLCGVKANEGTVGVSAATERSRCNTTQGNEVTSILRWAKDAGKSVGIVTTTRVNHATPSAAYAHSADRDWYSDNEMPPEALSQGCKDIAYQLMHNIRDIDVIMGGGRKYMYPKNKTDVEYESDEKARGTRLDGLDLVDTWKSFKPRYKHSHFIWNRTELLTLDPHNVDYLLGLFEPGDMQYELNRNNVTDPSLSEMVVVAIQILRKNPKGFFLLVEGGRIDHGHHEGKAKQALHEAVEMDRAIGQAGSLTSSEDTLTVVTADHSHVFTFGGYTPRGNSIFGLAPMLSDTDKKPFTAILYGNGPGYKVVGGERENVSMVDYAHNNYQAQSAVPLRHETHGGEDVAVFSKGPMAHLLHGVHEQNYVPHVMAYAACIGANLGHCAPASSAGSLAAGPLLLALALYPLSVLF

[30] = target: Ras and Rab interactor 1/Tyrosine-protein kinase ABL1 (Homo sapiens, UniProt P00519+Q13671); format: functional;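 note: biochemical TR-FRET dose-response test measuring inhibition of binding between Rin1 and Abl proteins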
CAAX prenyl protease 2 [31] = target: CAAX prenyl protease 2 (Saccharomyces cerevisiae S288c, UniProt Q03530); format: biochemical
CAAX prenyl protease 2 (Saccharomyces cerevisiae S288c, UniProt Q03530), sequence (Q03530 whole entry): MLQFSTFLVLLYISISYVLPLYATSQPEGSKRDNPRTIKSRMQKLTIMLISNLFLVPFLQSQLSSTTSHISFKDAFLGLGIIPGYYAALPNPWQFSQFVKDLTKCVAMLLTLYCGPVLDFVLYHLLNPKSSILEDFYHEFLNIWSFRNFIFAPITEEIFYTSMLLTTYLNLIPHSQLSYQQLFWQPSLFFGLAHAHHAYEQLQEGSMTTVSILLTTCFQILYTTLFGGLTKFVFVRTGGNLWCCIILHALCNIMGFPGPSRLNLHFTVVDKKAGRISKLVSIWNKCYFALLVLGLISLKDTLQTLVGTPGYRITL

T6 sequence (P09923 whole entry): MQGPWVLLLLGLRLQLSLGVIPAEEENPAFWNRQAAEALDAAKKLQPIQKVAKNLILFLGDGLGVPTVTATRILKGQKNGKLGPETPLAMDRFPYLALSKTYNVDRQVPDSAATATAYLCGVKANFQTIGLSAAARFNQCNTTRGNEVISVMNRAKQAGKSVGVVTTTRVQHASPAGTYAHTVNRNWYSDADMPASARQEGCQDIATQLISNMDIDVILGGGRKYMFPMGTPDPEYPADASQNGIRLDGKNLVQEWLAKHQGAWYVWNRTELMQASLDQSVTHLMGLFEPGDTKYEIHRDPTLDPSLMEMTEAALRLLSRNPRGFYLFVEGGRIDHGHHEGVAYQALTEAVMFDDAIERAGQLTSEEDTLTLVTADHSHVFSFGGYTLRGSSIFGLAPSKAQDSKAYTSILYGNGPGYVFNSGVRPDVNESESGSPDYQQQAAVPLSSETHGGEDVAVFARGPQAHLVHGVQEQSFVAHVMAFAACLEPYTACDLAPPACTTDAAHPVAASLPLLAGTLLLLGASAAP
Voltage-gated inwardly rectifying potassium channel KCNH2, sequence (Q12809 whole entry): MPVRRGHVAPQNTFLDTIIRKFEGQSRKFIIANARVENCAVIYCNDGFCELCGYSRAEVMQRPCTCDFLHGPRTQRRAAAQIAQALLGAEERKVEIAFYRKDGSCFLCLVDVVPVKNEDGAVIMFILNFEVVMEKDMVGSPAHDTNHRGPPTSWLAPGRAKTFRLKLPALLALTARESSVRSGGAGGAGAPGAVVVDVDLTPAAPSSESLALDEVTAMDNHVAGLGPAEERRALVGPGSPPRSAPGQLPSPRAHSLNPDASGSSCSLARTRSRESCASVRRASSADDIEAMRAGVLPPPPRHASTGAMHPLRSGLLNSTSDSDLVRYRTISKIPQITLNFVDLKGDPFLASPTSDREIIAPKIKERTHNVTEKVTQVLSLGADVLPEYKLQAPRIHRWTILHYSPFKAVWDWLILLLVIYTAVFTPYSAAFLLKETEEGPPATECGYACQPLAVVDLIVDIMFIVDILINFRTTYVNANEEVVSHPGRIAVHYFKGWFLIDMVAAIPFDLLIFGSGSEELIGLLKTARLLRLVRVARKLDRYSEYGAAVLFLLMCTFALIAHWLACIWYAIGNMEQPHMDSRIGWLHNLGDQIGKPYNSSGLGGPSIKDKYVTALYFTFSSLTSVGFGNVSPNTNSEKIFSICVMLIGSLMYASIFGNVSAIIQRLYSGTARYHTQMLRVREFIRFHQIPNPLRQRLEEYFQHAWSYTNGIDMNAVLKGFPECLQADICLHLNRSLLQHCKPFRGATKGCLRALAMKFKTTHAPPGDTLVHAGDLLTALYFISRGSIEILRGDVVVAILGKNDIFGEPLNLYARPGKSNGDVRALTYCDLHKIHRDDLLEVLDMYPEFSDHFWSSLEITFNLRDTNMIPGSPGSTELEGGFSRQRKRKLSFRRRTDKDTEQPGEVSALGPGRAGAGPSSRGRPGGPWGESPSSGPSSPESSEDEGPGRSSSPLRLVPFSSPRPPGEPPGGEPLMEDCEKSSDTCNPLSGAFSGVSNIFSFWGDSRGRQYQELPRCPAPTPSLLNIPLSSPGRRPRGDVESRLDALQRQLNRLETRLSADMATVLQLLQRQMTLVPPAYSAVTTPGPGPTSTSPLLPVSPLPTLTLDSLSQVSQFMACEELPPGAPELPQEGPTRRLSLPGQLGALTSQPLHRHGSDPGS
CAAX prenyl protease 2 (Homo sapiens, UniProt Q9Y256), sequence (Q9Y256 whole entry): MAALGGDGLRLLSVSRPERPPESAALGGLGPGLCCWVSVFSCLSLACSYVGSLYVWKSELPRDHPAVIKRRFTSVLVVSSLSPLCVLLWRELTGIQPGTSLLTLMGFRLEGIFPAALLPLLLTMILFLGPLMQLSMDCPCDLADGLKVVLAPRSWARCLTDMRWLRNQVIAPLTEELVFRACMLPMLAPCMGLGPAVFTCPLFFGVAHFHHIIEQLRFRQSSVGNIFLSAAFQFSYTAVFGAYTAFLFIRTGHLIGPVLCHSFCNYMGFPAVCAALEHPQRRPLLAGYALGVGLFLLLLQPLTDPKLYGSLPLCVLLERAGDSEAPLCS
Cytochrome P450 3A4, sequence (P08684 whole entry): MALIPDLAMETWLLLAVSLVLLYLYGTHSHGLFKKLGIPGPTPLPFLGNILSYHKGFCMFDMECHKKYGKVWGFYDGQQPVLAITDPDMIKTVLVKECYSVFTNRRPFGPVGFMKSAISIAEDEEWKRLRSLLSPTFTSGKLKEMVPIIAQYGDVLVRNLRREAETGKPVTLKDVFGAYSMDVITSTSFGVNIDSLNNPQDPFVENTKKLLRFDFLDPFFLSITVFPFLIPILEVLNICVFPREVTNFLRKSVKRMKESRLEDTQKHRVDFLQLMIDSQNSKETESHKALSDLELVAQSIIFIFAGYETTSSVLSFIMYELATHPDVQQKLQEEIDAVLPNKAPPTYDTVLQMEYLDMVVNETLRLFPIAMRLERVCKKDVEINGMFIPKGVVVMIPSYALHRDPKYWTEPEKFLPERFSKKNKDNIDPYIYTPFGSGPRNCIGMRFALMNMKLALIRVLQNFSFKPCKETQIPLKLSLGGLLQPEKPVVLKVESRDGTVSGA
Intestinal-type alkaline phosphatase (Mus musculus, UniProt P24822), sequence (P24822 whole entry): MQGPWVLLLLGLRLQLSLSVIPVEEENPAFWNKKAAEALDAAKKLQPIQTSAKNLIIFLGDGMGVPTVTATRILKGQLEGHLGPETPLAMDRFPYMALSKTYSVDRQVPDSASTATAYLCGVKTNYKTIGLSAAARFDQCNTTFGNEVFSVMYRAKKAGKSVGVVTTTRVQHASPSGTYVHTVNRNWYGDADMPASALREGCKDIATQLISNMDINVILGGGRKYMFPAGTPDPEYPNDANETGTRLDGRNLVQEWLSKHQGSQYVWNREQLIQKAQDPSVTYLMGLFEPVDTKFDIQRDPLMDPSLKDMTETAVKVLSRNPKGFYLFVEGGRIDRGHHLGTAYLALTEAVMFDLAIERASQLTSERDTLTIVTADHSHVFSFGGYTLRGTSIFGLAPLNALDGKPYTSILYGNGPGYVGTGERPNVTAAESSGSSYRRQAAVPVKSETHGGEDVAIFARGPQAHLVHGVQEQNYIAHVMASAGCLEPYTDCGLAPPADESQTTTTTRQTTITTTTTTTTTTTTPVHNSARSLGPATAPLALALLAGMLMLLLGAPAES
T1 sequence (P11712 whole entry): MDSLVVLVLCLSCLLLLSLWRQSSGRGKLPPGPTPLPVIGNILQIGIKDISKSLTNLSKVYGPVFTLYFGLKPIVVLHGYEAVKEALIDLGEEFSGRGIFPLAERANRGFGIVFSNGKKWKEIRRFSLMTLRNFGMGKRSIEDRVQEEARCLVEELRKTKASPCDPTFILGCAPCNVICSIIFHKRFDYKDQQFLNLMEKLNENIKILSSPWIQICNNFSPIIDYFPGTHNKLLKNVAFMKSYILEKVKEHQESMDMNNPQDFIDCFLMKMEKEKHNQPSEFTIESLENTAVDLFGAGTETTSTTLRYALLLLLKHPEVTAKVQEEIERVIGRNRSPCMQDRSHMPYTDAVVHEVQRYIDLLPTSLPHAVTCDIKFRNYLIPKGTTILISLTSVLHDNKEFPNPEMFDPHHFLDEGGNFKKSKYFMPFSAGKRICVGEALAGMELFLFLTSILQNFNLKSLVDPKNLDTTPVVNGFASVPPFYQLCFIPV
5-hydroxytryptamine receptor 5A, sequence (P47898 whole entry): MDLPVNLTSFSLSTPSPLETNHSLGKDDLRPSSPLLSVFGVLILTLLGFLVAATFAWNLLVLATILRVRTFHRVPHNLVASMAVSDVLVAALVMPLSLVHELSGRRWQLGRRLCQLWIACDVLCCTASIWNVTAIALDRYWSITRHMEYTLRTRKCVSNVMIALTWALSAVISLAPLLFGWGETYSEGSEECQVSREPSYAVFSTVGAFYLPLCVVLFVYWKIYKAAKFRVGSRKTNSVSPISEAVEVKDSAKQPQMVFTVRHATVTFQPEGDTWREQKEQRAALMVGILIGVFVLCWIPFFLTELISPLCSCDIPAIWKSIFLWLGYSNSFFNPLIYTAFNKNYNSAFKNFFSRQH
Delta-type opioid receptor, sequence (P41143 whole entry): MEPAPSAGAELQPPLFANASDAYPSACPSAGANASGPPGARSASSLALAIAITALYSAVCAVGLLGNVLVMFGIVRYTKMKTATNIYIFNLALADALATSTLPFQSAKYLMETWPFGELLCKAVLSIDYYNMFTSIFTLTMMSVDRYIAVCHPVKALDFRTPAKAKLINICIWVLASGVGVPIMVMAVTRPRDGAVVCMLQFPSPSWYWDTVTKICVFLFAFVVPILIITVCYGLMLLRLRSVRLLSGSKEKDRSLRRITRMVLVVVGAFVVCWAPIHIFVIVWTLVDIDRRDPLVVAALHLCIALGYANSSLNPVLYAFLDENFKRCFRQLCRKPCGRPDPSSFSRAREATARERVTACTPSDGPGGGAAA
Trypsin, sequence (P00761 whole entry): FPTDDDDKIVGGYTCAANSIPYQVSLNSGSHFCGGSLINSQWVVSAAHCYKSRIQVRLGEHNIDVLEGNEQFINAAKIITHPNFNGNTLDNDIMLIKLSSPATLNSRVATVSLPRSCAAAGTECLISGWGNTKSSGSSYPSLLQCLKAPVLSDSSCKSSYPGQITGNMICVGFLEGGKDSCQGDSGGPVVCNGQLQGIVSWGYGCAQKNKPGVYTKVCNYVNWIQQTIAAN

CC(C)(C=O)Cc1cc(C(C)(C)C)c(O)c(C(C)(C)C)c1
AC50 [1]: 35.5 µM (inconclusive)

O=C(c1ccco1)N1CCC2(CC1)CN(C(c1ccccc1)c1ccccc1)C2
AC50 (Cytochrome P450 3A4): inconclusive
AC50 (Cytochrome P450 2C9 [2]): 25.1 µM (inconclusive)

CC(C)c1ccc(N2C(=O)NC(=O)/C(=C/C=C/c3ccco3)C2=O)cc1
AC50 (A-375 [3]): > 35 µM (active)
AC50 [4]: 1.81 µM (active)
IC50 (cells): 17.4 µM (active)
AC50 (A-375 [5]): > 35 µM (active)
AC50 [6]: 5.89 µM (active)
EC50 (HEK293 [7]): > 59.6 µM (inactive)
EC50 (HEK293 [8]): > 59.6 µM (inactive)
CC50 [9]: 31.6 µM (active)

CCCNC(=O)c1ccccc1NC(=O)c1ccccc1N(C)S(=O)(=O)c1ccccc1
AC50 [10]: 1.83 µM (active)
AC50 [11]: 3.19 µM (active)
AC50 [12]: 3.2 µM (active)
EC50 (HEK293 [7]): > 59.6 µM (inactive)
EC50 (HEK293 [8]): > 59.6 µM (inactive)
AC50 [13]: 8.47 µM (active)

Cc1nc2c(c(-c3ccccc3)c1C#N)C(=O)c1ccccc1-2
AC50 (Cytochrome P450 3A4): inconclusive

CN(C)C(CNC(=O)c1cnc(Cl)c(Cl)c1)c1ccccc1 (stereo unspecified)
EC50 (Mu-type opioid receptor): 4.67 µM (active)
EC50 [14]: > 92.4 µM (inactive)
EC50 [15]: 1.07 µM (active)
EC50 [16]: 17.3 nM (active)

COCc1cc(O)nc2cc(NC(=O)C(F)(F)F)c(C)cc12
AC50 (Escherichia coli): 57.2 µM (active)

O=C1CCCN1CC(O)CS(=O)(=O)c1ccccc1 (stereo unspecified)
AC50 (Cytochrome P450 2C9 [17]): inconclusive
AC50 (CAAX prenyl protease 2 [18]): 17.7 µM (active)
AC50 (Trypsin): 1.72 µM (active)

CCCCn1c(=O)c(C(=O)Nc2ccccc2S(N)(=O)=O)c(O)c2ccccc21
IC50 [19]: > 20 µM (inactive)
IC50 [20]: 15.5 µM (active)
IC50 (Bcl-2-related protein A1): 2.02 µM (active)

C=CC[n+]1c(-c2ccc(Cl)cc2Cl)csc1Nc1c(C)n(C)n(-c2ccccc2)c1=O
IC50 [21]: 9.47 µM (active)
IC50 (HEK293 [22]): 7.13 µM (active)
IC50 (HEK293 [23]): 6.87 µM (active)
IC50 (HEK293 [24]): > 20 µM (inactive)
EC50 (HEK293 [25]): 5.29 µM (active)

CC(C)n1cc(CN2CCC(C(=O)Nc3cccc(-c4cccc(Cl)c4)c3)CC2)cn1
EC50 [26]: 82.8 µM (active)
EC50 [27]: 67.3 µM (active)
EC50 [28]: 88 µM (active)
EC50 [29]: 66.1 µM (active)
IC50 [30]: 16.4 µM (inactive)

Nc1nc(SCc2ccc([N+](=O)[O-])cc2)c2ncn([C@@H]3O[C@H](CO)[C@H](O)[C@H]3O)c2n1
AC50 [1]: 20 µM (inconclusive)

COc1ccccc1CN1CCC(n2nccc2NC(=O)CCCc2ccccc2)CC1
EC50 [26]: 74 µM (active)
EC50 [27]: 60.4 µM (active)
EC50 [28]: 51.3 µM (active)
EC50 [29]: 75.8 µM (active)

Cc1nc(-c2ccc(Cl)cc2)sc1C1(C)CC(c2ccccc2Br)=NO1 (stereo unspecified)
AC50 (CAAX prenyl protease 2 [18]): > 100 µM (inactive)
AC50 (CAAX prenyl protease 2 [31]): > 100 µM (inactive)

Reference: ChEMBL document CHEMBL1201862, “PubChem BioAssay data set” (2004)
